In patent publication US11999739B2, “Antimicrobials methods of making and using the same” (BIOVERSYS AG, priority 2016, dated 2024):
Converted amounts (≈) assume the structure as drawn. Like-named read-outs stand apart in the source and are kept apart here.

What was measured:
[1] = tested on: Staphylococcus aureus (S. aureus) 11540 strain; test: Standard microdilution MIC assay, S. aureus; assay type: cell-based
Method in brief: (§1)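 Broth microdilution per CLSI M7-A8 guidelines, with reference-strain quality control run in the same design; MIC determined per strain. Activity scored +/− against a 16 micrograms/mL cutoff.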

[2] = Rat five day safety study (bodyweight gain, reticulocyte count change); assay type: in vivo; conditions: male Sprague-Dawley juvenile rats, n=5, once daily slow intravenous infusion for 5 days at or near maximum-tolerated dose
Description: The compounds of the present disclosure were tested for safety in a multi-day dosing study in rat. Key parameters that were monitored are bodyweight gain and hematological changes, particularly changes in reticulocyte counts. Male Sprague-Dawley (CD) juvenile rats were received from Charles River with double jugular vein catheters. For each compound, n=5. […] Bodyweights were recorded daily for the first 5 days (during the dosing period), then 2 to 3 times per week thereafter. Blood was collected via a jugular vein catheter into EDTA anti-coagulated tubes for complete blood counts (CBC) on Days 0 (baseline), 3 and 7. On Day 22, blood was drawn via a cardiac puncture into EDTA coated tubes for final CBC, and serum separator tubes for the complete clinical chemistry profile. The blood that was collected into serum separator tubes was allowed to clot at room temperature for approximately 30 minutes, spun in a centrifuge at 2000 rpm, and the resulting serum was aliquoted. All samples were sent on wet ice to Charles River Labs for analysis.

[3] = tested on: Escherichia coli strain ATCC25922; test: Standard microdilution MIC assay, E. coli; assay type: cell-based
Method in brief: as §1

[4] = tested on: Enterobacteriaceae; test: CLSI broth microdilution MIC, multiresistant Enterobacteriaceae panel; assay type: cell-based; conditions: for MIC, peak of unimodal distribution: 68 Enterobacteriaceae, FIG. 1
Description: (§2) Four compounds, including Compound Nos. 120 and 162 of the present application (RX-04B and RX-04C, respectively) were tested against (i) multiresistant Enterobacteriaceae and Acinetobacter with carbapenemases; (ii) Enterobacteriaceae with MCR-1; and (iii) P. aeruginosa with altered efflux (see Tables 4 and 5). In this case, MCR-1 is relevant because its activity reduces the negative charge of lipopolysaccharides, potentially affecting binding of poly-basic molecules such as the compounds tested herein, as well as polymyxins.
(§3) MICs of the four tested compounds and comparators (amikacin, cefepime, colistin, meropenem and tigecyline) were determined by CLSI broth microdilution using pre-prepared plates (Trek Diagnostic Systems) (CLSI Approved Standard M7-A10). Carbapenemase and mcr-1 genes were detected by PCR or sequencing. Efflux levels in P. aeruginosa isolates were inferred by interpretive reading of antibiogram data.

[5] = tested on: CPE; test: CLSI broth microdilution MIC, carbapenemase-producing Enterobacteriaceae (CPE); assay type: cell-based; conditions: 35/36 (97%) of CPE, FIG. 2
Description: as §2, §3

[6] = tested on: E. coli DH10B; test: CLSI broth microdilution MIC, E. coli DH10B recipient; assay type: cell-based
Description: as §3

[7] = tested on: MCR-1 isolates; test: CLSI broth microdilution MIC, Enterobacteriaceae with MCR-1; assay type: cell-based; conditions: all MCR-1 isolates (n=14), FIG. 3
Description: as §2, §3

[8] = tested on: A. baumannii; test: CLSI broth microdilution MIC, A. baumannii; assay type: cell-based
Description: as §2, §3

[9] = tested on: P. aeruginosa; test: CLSI broth microdilution MIC, P. aeruginosa with altered efflux; assay type: cell-based
Description: as §2, §3

[10] = tested on: E. coli DH10B mcr-1 transformant; test: CLSI broth microdilution MIC, E. coli DH10B mcr-1 transformant; assay type: cell-based
Description: as §3

[11] = Escherichia coli, read-out: MIC
[12] = Pseudomonas aeruginosa, almost half (48%) of the MICs, FIG. 5, read-out: MIC

For `CCCN1[C@H](CCNC(C)=N)CCC[C@H]1c1ccc(-n2cc3cc(-c4cc(CCC[C@H](C)N)cc(Cl)c4F)[nH]c3nc2=O)cc1` [Compound 360], which MIC [1] is on record?
The MIC was at most 16 µg/mL.

What about the “BW Result” value ([2]; bodyweight gain) of the same compound?
Its value is “+ (a “+” in “BW result” indicates that the rat exhibited a weight gain of 20% or more)”.

What about the “Hematology Result” value ([2]; reticulocyte count change) of the same compound?
Its value is “+ (a “+” in “Hematology result” indicates indicates that the rat exhibited a reticulocyte count change of 65% or less)”.

And the MIC [3]?
The MIC was at most 16 µg/mL.

For `C[C@H](N)CCCc1cc(OC(F)(F)F)c(F)c(-c2cc3cn(-c4ccc([C@@H]5CCC[C@@H](CCNC(=N)N)N5)cc4)c(=O)nc3[nH]2)c1` [RX-04A], which MIC ([4]; 67/68 (>98%) MICs) is on record?
The MIC was 0.25 to 2 µg/mL (≈ 0.389 to 3.11 µM).

And the “MIC, peak of unimodal distribution” value [4]?
Its value is 1 µg/mL.

And the MIC ([4]; MICs mostly (summary))?
The MIC was 1 to 2 µg/mL (≈ 1.56 to 3.11 µM).

What about the “MIC relative to the MIC for E. coli ATCC 25922” value [5] of the same compound?
The value was at most 4 fold.

What about the MIC [6, 11] of the same compound?
Its MIC is 0.25 µg/mL (≈ 0.389 µM).

What about the “MIC relative to the MIC for E. coli ATCC 25922” value [7] of the same compound?
Its value is at most 2 fold.

And the MIC ([8]; Acinetobacter baumannii, 7/10 values, read-out: MIC)?
The MIC was 1 to 2 µg/mL (≈ 1.56 to 3.11 µM).

What about the MIC ([8]; MICs mostly (summary)) of the same compound?
Its MIC is 1 to 2 µg/mL.

And the MIC ([9]; MICs mostly (summary))?
Its MIC is 1 to 4 µg/mL.

What about the “MIC change in isolates with elevated efflux” value ([9]; P. aeruginosa isolates with elevated efflux) of the same compound?
Its value is “not raised”.

What about the MIC ([9]; Pseudomonas aeruginosa, 19/20 (95%) isolates, read-out: MIC) of the same compound?
Its MIC is 1 to 4 µg/mL (≈ 1.56 to 6.22 µM).

What about the MIC ([10]; Escherichia coli) of the same compound?
Its MIC is 0.25 µg/mL (≈ 0.389 µM).

Which results are given for `CSc1cc(-n2cc3cc(-c4cc(CCC[C@@H](N)C5CC5)cc(Cl)c4F)[nH]c3nc2=O)ccc1[C@@H]1CCC[C@@H](CCNC(=N)N)N1` [RX-04B]?
MIC, peak of unimodal distribution [4]: 1 µg/mL; MIC [6, 11]: 0.5 µg/mL (≈ 0.752 µM); MIC ([10]; Escherichia coli): 0.5 µg/mL (≈ 0.752 µM)

Which results are given for `N=C(N)NCC[C@@H]1CCC[C@@H](c2ccc(-n3cc4cc(-c5cc(CCC[C@@H](N)CO)cc(Cl)c5F)[nH]c4nc3=O)cc2F)N1` [RX-04C]?
MIC, peak of unimodal distribution [4]: 2 µg/mL; MIC [6, 11]: 0.5 µg/mL (≈ 0.797 µM); MIC [9, 12]: ≥ 16 µg/mL; MIC ([10]; Escherichia coli): 0.5 µg/mL (≈ 0.797 µM)

Which results are given for `C[C@H](N)CCCc1cc(Cl)c(F)c(-c2cc3cn(-c4ccc([C@@H]5CCC[C@@H](CCNC(=N)CN)N5)cc4)c(=O)nc3[nH]2)c1` [RX-04D]?
MIC, peak of unimodal distribution [4]: 2 µg/mL; MIC [6, 11]: 1 µg/mL (≈ 1.65 µM); relative activity among analogues ([8]; 10 A. baumannii, FIG. 4): least active analogue; MIC [9, 12]: ≥ 16 µg/mL; MIC ([10]; Escherichia coli): 1 µg/mL (≈ 1.65 µM)

What does the source list for colistin [reference compound]?
MIC [6]: 0.25 µg/mL; MIC ([10]; MCR-1 Transformant): 4 µg/mL
